According to publication PMC8064871 (International Journal of Biological Macromolecules, 2021):

Target: T1, human chymotrypsin-C (CTRC) (Homo sapiens, UniProt Q99895)
T1 sequence (Q99895 30-268): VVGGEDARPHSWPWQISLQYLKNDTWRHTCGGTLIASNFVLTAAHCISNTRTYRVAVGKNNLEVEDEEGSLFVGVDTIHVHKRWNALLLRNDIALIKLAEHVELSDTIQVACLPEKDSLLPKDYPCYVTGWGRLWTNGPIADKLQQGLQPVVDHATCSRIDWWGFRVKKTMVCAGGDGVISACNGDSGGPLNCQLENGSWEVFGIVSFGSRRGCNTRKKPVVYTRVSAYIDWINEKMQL
Assay: In vitro assessment of human chymotrypsin C
Assay type: biochemical
Details: 0, 1, 10, 100 µM; 30 min at 37 °C; OD405

## CC1=CC(=O)c2ccccc2C1=O [Entry 1, 2-Methyl-1,4-naphthoquinone (vitamin K3), reference compound]
  inhibition of human CTRC activity (in words): selectively inhibit SARS-CoV-2 and SARS-CoV 3CL^pro, rather than human CTRC
